# Test results as given in US10538512B2, “Aminoacylindazole immunomodulators for treatment of autoimmune diseases” (The Rockefeller University, priority 2016, dated 2020).
# Legend:
# Human FXIIa = target: T1, Human FXIIa (Homo sapiens, UniProt P00748); assay: Factor XIIa (FXIIa) inhibitory activity, chromogenic substrate assay; assay type: biochemical; conditions: Human FXIIa 12.5 nM, Pefachrome XIIa 400 μM, 10 min preincubation
# T1 construct: active coagulation factor XII (FXIIa); purchased Enzyme Research Labs
# T1 sequence (P00748 373-615 limits assumed): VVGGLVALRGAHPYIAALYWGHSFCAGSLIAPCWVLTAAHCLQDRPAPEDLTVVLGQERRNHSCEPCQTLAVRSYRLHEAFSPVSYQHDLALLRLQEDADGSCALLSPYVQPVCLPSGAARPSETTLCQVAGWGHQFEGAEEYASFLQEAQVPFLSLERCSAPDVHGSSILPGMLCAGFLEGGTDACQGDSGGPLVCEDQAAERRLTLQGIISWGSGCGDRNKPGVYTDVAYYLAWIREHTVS
# T1 sequence (P00748 20-372 partner limits assumed): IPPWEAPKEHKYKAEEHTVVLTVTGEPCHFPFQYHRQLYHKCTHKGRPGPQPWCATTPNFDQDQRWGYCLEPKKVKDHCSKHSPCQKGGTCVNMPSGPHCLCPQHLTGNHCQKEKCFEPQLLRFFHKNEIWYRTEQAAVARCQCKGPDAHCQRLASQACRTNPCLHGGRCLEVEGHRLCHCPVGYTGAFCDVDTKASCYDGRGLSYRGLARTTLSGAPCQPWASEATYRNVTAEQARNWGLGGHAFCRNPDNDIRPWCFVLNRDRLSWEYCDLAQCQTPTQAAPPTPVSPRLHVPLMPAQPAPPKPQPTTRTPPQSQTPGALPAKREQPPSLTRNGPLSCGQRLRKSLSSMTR
# How it was run: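 Buffer was 0.5× HBSS with 25 mM HEPES pH 7.4 and 0.5× TBS-Tween 0.05%. Enzyme and compound (about 1–100 μM) were preincubated 10 min at room temperature, then Pefachrome XIIa was added at 400 μM final. Substrate cleavage was followed as the rate of A405 change at 37 °C.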
# Human alpha-thrombin = target: T2, Human alpha-thrombin (Homo sapiens, UniProt P00734); assay: Thrombin counterscreen for selectivity, fluorogenic substrate assay; assay type: biochemical; conditions: Human alpha-thrombin 12.5 nM, Boc-Val-Pro-Arg-AMC 20 μM, 10 min preincubation
# T2 construct: Human alpha-thrombin (Enzyme Research Labs); purchased Enzyme Research Labs
# How it was run: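 Compounds, about 1–100 μM, preincubated 10 min at room temperature with enzyme, then Boc-Val-Pro-Arg-AMC added at 20 μM final.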
IC50 (Human FXIIa) [µM],IC50 (Human alpha-thrombin) [µM],SMILES
0.04,44,"CCn1c(C)cc2c(C(=O)n3nc4c(c3N)CCCC4)cccc21 [Example 38, (3-amino-4,5,6,7-tetrahydroindazol-2-yl)(1-ethyl-2-methyl-1H-indol-4-yl)methanone]"
15,> 100,"CCc1ccccc1C(=O)n1nc2c(c1N)CCCC2 [Example 40, (3-amino-4,5,6,7-tetrahydroindazol-2-yl)(2-ethylphenyl)methanone]"
1.2,> 100,"Nc1c2c(nn1C(=O)c1coc3ccccc13)CCCC2 [Example 41, (3-amino-4,5,6,7-tetrahydroindazol-2-yl)(benzofuran-3-yl)methanone]"
11,> 100,"Nc1c2c(nn1C(=O)c1c[nH]c3ccccc13)CCCC2 [Example 42, (3-amino-4,5,6,7-tetrahydroindazol-2-yl)(1H-indol-3-yl)methanone]"
7.5,> 50,"Nc1c2c(nn1C(=O)C1CCc3ccccc31)CCCC2 (stereo not shown) [Example 46, (3-amino-4,5,6,7-tetrahydroindazol-2-yl)(2,3-dihydro-1H-inden-1-yl)methanone]"
> 100,> 100,"Nc1c2c(nn1C(=O)c1cccc3[nH]cnc13)CCCC2 [Example 48, (3-amino-4,5,6,7-tetrahydroindazol-2-yl)(1H-benzo[d]imidazol-4-yl)methanone]"
0.01,25,"CCc1cc2c(C(=O)n3nc4c(c3N)CCCC4)cccc2[nH]1 [Example 50, (3-amino-4,5,6,7-tetrahydroindazol-2-yl)(2-ethyl-1H-indol-4-yl)methanone]"
17,22,"Cc1cc2ccc(C(=O)n3nc4c(c3N)CCCC4)cc2o1 [Example 60, (3-amino-4,5,6,7-tetrahydroindazol-2-yl)(2-methylbenzofuran-6-yl)methanone]"
> 50,20,"Cc1cc2ccc(C(=O)n3nc(N)c4c3CCCC4)cc2o1 [Example 61, (3-amino-4,5,6,7-tetrahydroindazol-1-yl)(2-methylbenzofuran-6-yl)methanone]"
> 100,> 100,"Nc1nn(C(=O)C2CCNc3ccccc32)c2ccccc12 (stereo not shown) [Example 77, (3-amino-1H-indazol-1-yl)(1,2,3,4-tetrahydroquinolin-4-yl)methanone]"
0.25,68,"COc1ccc(C(=O)n2nc3c(c2N)CCCC3)c2cc[nH]c12 [Example 80, (3-amino-4,5,6,7-tetrahydroindazol-2-yl)(7-methoxy-1H-indol-4-yl)methanone]"
0.3,> 50,"Cc1cc2c([nH]1)CCCC2C(=O)n1nc2c(c1N)CCCC2 (stereo not shown) [Example 81, (3-amino-4,5,6,7-tetrahydroindazol-2-yl)(2-methyl-4,5,6,7-tetrahydro-1H-indol-4-yl)methanone]"
0.4,30,"Cc1cc2c(o1)CCCC2C(=O)n1nc2c(c1N)CCCC2 (stereo not shown) [Example 85, (3-amino-4,5,6,7-tetrahydro-2H-indazol-2-yl)(2-methyl-4,5,6,7-tetrahydrobenzofuran-4-yl)methanone]"
0.5,> 80,"Cc1cc2c(s1)CCCC2C(=O)n1nc2c(c1N)CCCC2 (stereo not shown) [Example 86, (3-amino-4,5,6,7-tetrahydroindazol-2-yl)(2-methyl-4,5,6,7-tetrahydrobenzo[b]thiophen-4-yl)methanone]"
0.3,18,"Cc1cc2c(n1S(C)(=O)=O)CCCC2C(=O)n1nc2c(c1N)CCCC2 (stereo not shown) [Example 90, (3-amino-4,5,6,7-tetrahydroindazol-2-yl)(2-methyl-1-(methylsulfonyl)-4,5,6,7-tetrahydro-1H-indol-4-yl)methanone]"
1,22,"CS(=O)(=O)N1CCC(C(=O)n2nc3c(c2N)CCCC3)c2ccccc21 (stereo not shown) [Example 99, (3-amino-4,5,6,7-tetrahydroindazol-2-yl)(1-(methylsulfonyl)-1,2,3,4-tetrahydroquinolin-4-yl)methanone]"
10,> 80,"COC1CCc2c(c(N)nn2C(=O)c2cccc3[nH]c(C)cc23)C1 (stereo not shown) [Example 120, (3-amino-5-methoxy-4,5,6,7-tetrahydro-2H-indazol-1-yl)(2-methyl-1H-indol-4-yl)methanone]"
0.02,9,"Cc1cc2c(C(=O)n3nc4c(c3N)CC(F)(F)CC4)cccc2[nH]1 [Example 121, (3-amino-5,5-difluoro-4,5,6,7-tetrahydro-2H-indazol-2-yl)(2-methyl-1H-indol-4-yl)methanone]"
0.7,25,"Cc1cc2c(C(=O)n3nc(N)c4c3CCC(F)(F)C4)cccc2[nH]1 [Example 122, (3-amino-5,5-difluoro-4,5,6,7-tetrahydro-2H-indazol-1-yl)(2-methyl-1H-indol-4-yl)methanone]"
60,60,"Nc1nn(C(=O)c2ccnc3cc(Cl)ccc23)c2c1CCCC2 [Example 124, (3-amino-4,5,6,7-tetrahydro-2H-indazol-1-yl)(7-chloroquinolin-4-yl)methanone]"
25,> 100,CCc1ccccc1C(=O)n1nc(N)c2c1CCCC2 [Example 152]
17,> 50,Cc1[nH]c2ccccc2c1C(=O)n1nc(N)c2c1CCCC2 [Example 154]
30,> 100,Nc1nn(C(=O)c2cccc3[nH]ncc23)c2c1CCCC2 [Example 157]
0.06,> 100,Cc1cc2c(C(=O)n3nc4c(c3N)CC(O)CC4)cccc2[nH]1 (stereo not shown) [Example 161]

SMILES,IC50 (Human FXIIa) [µM],IC50 (Human alpha-thrombin) [µM]
"CCn1cc(C(=O)n2nc3c(c2N)CCCC3)c2ccccc21 [Example 43, (3-amino-4,5,6,7-tetrahydroindazol-2-yl)(1-ethyl-1H-indol-3-yl)methanone]",7.5,> 100
"CCn1c(C)c(C(=O)n2nc3c(c2N)CCCC3)c2ccccc21 [Example 45, (3-amino-4,5,6,7-tetrahydroindazol-2-yl)(1-ethyl-2-methyl-1H-indol-3-yl)methanone]",12,> 100
